The values below come from US8569295B2, “Bicyclic urea compounds” (Merck Patent GmbH, priority 2009, dated 2013).

T1 sequence (Q04912 25-1400): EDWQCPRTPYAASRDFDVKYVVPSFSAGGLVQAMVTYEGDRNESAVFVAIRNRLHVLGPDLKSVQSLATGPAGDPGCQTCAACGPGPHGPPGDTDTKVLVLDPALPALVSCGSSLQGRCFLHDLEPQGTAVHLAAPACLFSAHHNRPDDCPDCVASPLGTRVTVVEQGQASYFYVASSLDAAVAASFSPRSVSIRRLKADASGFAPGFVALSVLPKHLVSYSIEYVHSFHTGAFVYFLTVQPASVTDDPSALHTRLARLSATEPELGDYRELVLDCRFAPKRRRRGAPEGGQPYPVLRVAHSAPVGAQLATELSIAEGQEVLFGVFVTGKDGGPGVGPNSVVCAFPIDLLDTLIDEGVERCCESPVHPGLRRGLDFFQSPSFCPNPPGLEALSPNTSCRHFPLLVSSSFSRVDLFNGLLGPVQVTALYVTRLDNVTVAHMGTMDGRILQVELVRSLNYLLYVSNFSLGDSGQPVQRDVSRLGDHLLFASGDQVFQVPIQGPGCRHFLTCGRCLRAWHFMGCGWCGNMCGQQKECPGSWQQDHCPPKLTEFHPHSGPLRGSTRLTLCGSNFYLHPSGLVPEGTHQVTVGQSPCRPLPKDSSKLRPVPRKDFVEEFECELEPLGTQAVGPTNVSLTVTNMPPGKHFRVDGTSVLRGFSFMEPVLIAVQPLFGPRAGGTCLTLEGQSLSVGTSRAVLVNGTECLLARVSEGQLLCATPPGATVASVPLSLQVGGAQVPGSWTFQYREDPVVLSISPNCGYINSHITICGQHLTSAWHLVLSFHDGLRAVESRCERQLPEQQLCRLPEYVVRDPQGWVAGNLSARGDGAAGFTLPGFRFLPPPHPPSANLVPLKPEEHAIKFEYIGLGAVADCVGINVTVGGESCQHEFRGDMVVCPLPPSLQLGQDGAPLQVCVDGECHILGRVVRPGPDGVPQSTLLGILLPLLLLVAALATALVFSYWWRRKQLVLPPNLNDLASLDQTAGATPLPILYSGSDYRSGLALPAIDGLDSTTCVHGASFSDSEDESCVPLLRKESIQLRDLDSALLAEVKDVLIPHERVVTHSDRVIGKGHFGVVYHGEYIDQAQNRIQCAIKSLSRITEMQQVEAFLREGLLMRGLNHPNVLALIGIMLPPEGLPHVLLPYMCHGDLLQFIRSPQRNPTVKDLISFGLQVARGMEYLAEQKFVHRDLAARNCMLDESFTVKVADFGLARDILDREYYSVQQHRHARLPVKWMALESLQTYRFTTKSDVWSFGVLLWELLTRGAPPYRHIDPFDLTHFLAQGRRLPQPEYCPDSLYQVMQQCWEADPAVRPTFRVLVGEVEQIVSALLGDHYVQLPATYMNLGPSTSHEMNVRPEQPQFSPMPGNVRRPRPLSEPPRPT

This experiment has as its target T1, RON kinase (Homo sapiens, UniProt Q04912).
T1 construct: purchased Caliper Life Sciences
In words: RON kinase biochemical mobility shift assay (Caliper Desktop Profiler). The following applies: RON kinase inhibition. The protocol: The Aurora assays described here are performed on two Caliper Life Sciences systems: the LC3000 and the Desktop Profiler. The RON kinase assays are performed on the Desktop Profiler only. These provide data on enzyme activity via measurement of the relative amounts of phosphorylated or unphosphorylated fluorescently labelled substrate peptide at the end of an enzymatic reaction. These different states of peptide are resolved by applying a potential difference across the sample. The presence of the charged phosphate group on the product (as opposed to the substrate) causes a different peptide mobility between the two peptides. This is visualized by excitation of the fluorescent label on the substrate and product peptides and represented as peaks within the analysis software.
The Desktop Profiler utilizes the same priniciple as the LC3000 for calculating percentage conversion of a substrate to product. Caliper Life Sciences provides proprietary flash frozen pre-made 384 well plates containing selected kinases. Each column in the 384 well plate contains a particular selected kinase. A second plate, the ‘substrate plate’ contains a mix of fluorescently labeled peptide substrate and ATP. These are arranged in columns so that transfer for substrate plate to enzyme plate provides the correct enzyme with the correct substrate/ATP concentration. Compounds are added to a thawed enzyme plate in the desired format, in single concentrations. Reactions are initiated by transfer of the substrate/ATP mix from the substrate plate. The enzyme plate is incubated for 90 minutes at 25 C. The reaction is stopped by addition of 70 ul of Stop Buffer (100 mM HEPES pH 7.5, 0.015% Brij-35, 10 mM EDTA (Sigma, E7889)).
Reading of the plate in the Profiler is identical to the LC3000, and the ratio between substrate and product peaks provides the activity of the enzyme in that well. This is best represented by a plate heat map which colors each well by percent inhibition as compared to positive and negative controls (no inhibitors and no ATP respectively).
As to `Cc1ccc(Nc2ccnc3c2CNC(=O)N3)cc1Br` [Example 194, 5-(3-Bromo-4-methyl-phenylamino)-3,4-dihydro-1H-pyrido[2,3-d]pyrimidin-2-one], the IC50 lay within 0.1 to 1 µM.

In the case of `O=C(Nc1ccc(Oc2ccnc3c2CNC(=O)N3)c(F)c1)Nc1ccc(C(F)(F)F)cc1Cl` [Example 274, 1-(2-Chloro-4-trifluoromethyl-phenyl)-3-[3-fluoro-4-(2-oxo-1,2,3,4-tetrahydro-pyrido[2,3-d]pyrimidin-5-yloxy)-phenyl]-urea], the IC50 lay within 0.1 to 1 µM.

As to `O=C(Nc1cccc(C(F)(F)F)c1)Nc1ccc(Oc2ccnc3c2CNC(=O)N3)c(F)c1` [Example 270, 1-[3-Fluoro-4-(2-oxo-1,2,3,4-tetrahydro-pyrido[2,3-d]pyrimidin-5-yloxy)-phenyl]-3-(3-trifluoromethyl-phenyl)-urea], the IC50 fell in the range of 0.01 to 0.1 µM.

Turning to `CCN1Cc2c(Oc3ccc(NC(=O)Nc4ccc(Cl)nc4)cc3F)ccnc2NC1=O` [Example 264, 1-(6-Chloro-pyridin-3-yl)-3-[4-(3-ethyl-2-oxo-1,2,3,4-tetrahydro-pyrido[2,3-d]pyrimidin-5-yloxy)-3-fluoro-phenyl]-urea], the 50% inhibitory concentration (IC50) is 0.1 to 1 µM.

As for `O=C1NCc2c(Oc3ccc(NC(=O)c4cccc(F)c4)cc3F)ccnc2N1` [Example 98, 3-fluoro-N-{3-fluoro-4-[(2-oxo-1,2,3,4-tetrahydropyrido[2,3-d]pyrimidin-5-yl)oxy]phenyl}benzamide], the IC50 was in the range of 0.01 to 0.1 µM.

Take `O=C1NCc2c(Oc3ccc(NC(=O)c4cccc(C(F)(F)F)c4F)cc3F)ccnc2N1` [Example 94, 2-fluoro-N-{3-fluoro-4-[(2-oxo-1,2,3,4-tetrahydropyrido[2,3-d]pyrimidin-5-yl)oxy]phenyl}-3-(trifluoromethyl)benzamide]: the IC50 lay in the range of 0.01 to 0.1 µM.

For the compound `CCN1Cc2c(Oc3ccc(NC(=O)Nc4cc(C)cs4)cc3F)ccnc2NC1=O` [Example 267, 1-[4-(3-Ethyl-2-oxo-1,2,3,4-tetrahydro-pyrido[2,3-d]pyrimidin-5-yloxy)-3-fluoro-phenyl]-3-(4-methyl-thiophen-2-yl)-urea], the IC50 was in the range of 0.01 to 0.1 µM.

With `CC(C)c1ccc(NC(=O)Nc2ccc(Oc3ccnc4c3CNC(=O)N4)c(F)c2)cc1` [Example 273, 1-[3-Fluoro-4-(2-oxo-1,2,3,4-tetrahydro-pyrido[2,3-d]pyrimidin-5-yloxy)-phenyl]-3-(4-isopropyl-phenyl)-urea], the IC50 was less than 0.01 µM.

In the case of `CCN1Cc2c(Oc3ccc(NC(=O)Nc4c(-c5ccccc5)noc4C)cc3F)ccnc2NC1=O` [Example 266, 1-[4-(3-Ethyl-2-oxo-1,2,3,4-tetrahydro-pyrido[2,3-d]pyrimidin-5-yloxy)-3-fluoro-phenyl]-3-(5-methyl-3-phenyl-isoxazol-4-yl)-urea], the 50% inhibitory concentration (IC50) fell in the range of 0.1 to 1 µM.

For the compound `O=C1NCc2c(Nc3ccc(OC(F)(F)F)c(Br)c3)ccnc2N1` [Example 195, 5-(3-Bromo-4-trifluoromethoxy-phenylamino)-3,4-dihydro-1H-pyrido[2,3-d]pyrimidin-2-one], the IC50 was in the range of 0.1 to 1 µM.

As to `CCN1Cc2c(Oc3ccc(NC(=O)Nc4ccc5c(c4)OCO5)cc3F)ccnc2NC1=O` [Example 263, 1-Benzo[1,3]dioxol-5-yl-3-[4-(3-ethyl-2-oxo-1,2,3,4-tetrahydro-pyrido[2,3-d]pyrimidin-5-yloxy)-3-fluoro-phenyl]-urea], the IC50 was in the range of 0.01 to 0.1 µM.

For the compound `Cc1c(C(=O)Nc2ccc(Oc3ccnc4c3C3OCCCN3C(=O)N4)c(F)c2)c(=O)n(-c2ccccc2)n1CC(C)(C)O` (stereo not drawn) [Example 75, N-{3-fluoro-4-[(6-oxo-3,4,7,11b-tetrahydro-2H,6H-pyrido[2′,3′:4,5]pyrimido[6,1-b][1,3]oxazin-11-yl)oxy]phenyl}-1-(2-hydroxy-2-methylpropyl)-5-methyl-3-oxo-2-phenyl-2,3-dihydro-1H-pyrazole-4-carboxamide], the IC50 lay within 0.1 to 1 µM.

Take `CCN1Cc2c(Oc3ccc(NC(=O)c4cccn(-c5ccc(F)cc5)c4=O)cc3F)ccnc2NC1=O` [Example 84, N-{4-[(3-ethyl-2-oxo-1,2,3,4-tetrahydropyrido[2,3-d]pyrimidin-5-yl)oxy]-3-fluorophenyl}-1-(4-fluorophenyl)-2-oxo-1,2-dihydropyridine-3-carboxamide]: the IC50 was less than 0.01 µM.

For the compound `Cc1c(C(=O)Nc2ccc(Oc3ccnc4c3CNC(=O)N4)c(F)c2)c(=O)n(-c2ccccc2)n1CC(C)(C)O` [Example 74, N-{3-fluoro-4-[(2-oxo-1,2,3,4-tetrahydropyrido[2,3-d]pyrimidin-5-yl)oxy]phenyl}-1-(2-hydroxy-2-methylpropyl)-5-methyl-3-oxo-2-phenyl-2,3-dihydro-1H-pyrazole-4-carboxamide], the concentration for half-maximal inhibition (IC50) is 0.1 to 1 µM.

As for `O=C1NCc2c(Oc3ccc(NC(=O)c4ccc(Br)cc4)cc3F)ccnc2N1` [Example 99, 4-bromo-N-{3-fluoro-4-[(2-oxo-1,2,3,4-tetrahydropyrido[2,3-d]pyrimidin-5-yl)oxy]phenyl}benzamide], the IC50 was less than 0.01 µM.

As to `O=C1NCc2c(Oc3ccc(NC(=O)c4cccn(-c5ccc(F)cc5)c4=O)nc3)ccnc2N1` [Example 283, 1-(4-Fluoro-phenyl)-2-oxo-1,2-dihydro-pyridine-3-carboxylic acid [5-(2-oxo-1,2,3,4-tetrahydro-pyrido[2,3-d]pyrimidin-5-yloxy)-pyridin-2-yl]-amide], the IC50 lay in the range of 0.1 to 1 µM.

For the compound `O=C(Nc1ccc(Oc2ccnc3c2CN(CC(F)(F)F)C(=O)N3)c(F)c1)c1cccn(-c2ccc(F)cc2)c1=O` [Example 85, N-(3-fluoro-4-{[2-oxo-3-(2,2,2-trifluoroethyl)-1,2,3,4-tetrahydropyrido[2,3-d]pyrimidin-5-yl]oxy}phenyl)-1-(4-fluorophenyl)-2-oxo-1,2-dihydropyridine-3-carboxamide], the IC50 was 0.01 to 0.1 µM.

As for `CCN1Cc2c(Oc3ccc(NC(=O)Nc4cc([N+](=O)[O-])ccc4F)cc3F)ccnc2NC1=O` [Example 258, 1-[4-(3-Ethyl-2-oxo-1,2,3,4-tetrahydro-pyrido[2,3-d]pyrimidin-5-yloxy)-3-fluoro-phenyl]-3-(2-fluoro-5-nitro-phenyl)-urea], the IC50 fell in the range of 0.1 to 1 µM.

Consider `N#Cc1cccc(C(=O)Nc2ccc(Oc3ccnc4c3CNC(=O)N4)c(F)c2)c1` [Example 95, 3-cyano-N-{3-fluoro-4-[(2-oxo-1,2,3,4-tetrahydropyrido[2,3-d]pyrimidin-5-yl)oxy]phenyl}benzamide], for which the IC50 lay in the range of 0.01 to 0.1 µM.

Take `CCN1Cc2c(Oc3ccc(NC(=O)Nc4cc(C)oc4C(F)(F)F)cc3F)ccnc2NC1=O` [Example 268, 1-[4-(3-Ethyl-2-oxo-1,2,3,4-tetrahydro-pyrido[2,3-d]pyrimidin-5-yloxy)-3-fluoro-phenyl]-3-(5-methyl-2-trifluoromethyl-furan-3-yl)-urea]: the half-inhibitory concentration (IC50) lay within 0.01 to 0.1 µM.

Turning to `COc1cccc(C(=O)Nc2ccc(Oc3ccnc4c3CNC(=O)N4)c(F)c2)c1` [Example 96, N-{3-fluoro-4-[(2-oxo-1,2,3,4-tetrahydropyrido[2,3-d]pyrimidin-5-yl)oxy]phenyl}-3-methoxybenzamide], the half-maximal inhibitory concentration (IC50) was 0.01 to 0.1 µM.

`O=C(Nc1ccc(Oc2ccnc3c2C2OCCCN2C(=O)N3)c(F)c1)c1cccn(-c2ccc(F)cc2)c1=O` (stereo not drawn) [Example 76, N-{3-fluoro-4-[(6-oxo-3,4,7,11b-tetrahydro-2H,6H-pyrido[2′,3′:4,5]pyrimido[6,1-b][1,3]oxazin-11-yl)oxy]phenyl}-1-(4-fluorophenyl)-2-oxo-1,2-dihydropyridine-3-carboxamide]: the IC50 fell in the range of 0.01 to 0.1 µM.

As to `O=C1NCc2c(Oc3ccc(NC(=O)c4cccn(-c5ccc(F)cc5)c4=O)cc3F)ccnc2N1` [Example 59, N-{3-fluoro-4-[(2-oxo-1,2,3,4-tetrahydropyrido[2,3-d]pyrimidin-5-yl)oxy]phenyl}-1-(4-fluorophenyl)-2-oxo-1,2-dihydropyridine-3-carboxamide], the IC50 is less than 0.01 µM.

Turning to `Cc1cccc(C(=O)Nc2ccc(Oc3ccnc4c3CNC(=O)N4)c(F)c2)c1` [Example 97, N-{3-fluoro-4-[(2-oxo-1,2,3,4-tetrahydropyrido[2,3-d]pyrimidin-5-yl)oxy]phenyl}-3-methylbenzamide], the concentration for half-maximal inhibition (IC50) is 0.01 to 0.1 µM.
